Experimental data taken from PMC10573254, “Development of Novel Class of Phenylpyrazolo[3,4-d]pyrimidine-Based Analogs with Potent Anticancer Activity and Multitarget Enzyme Inhibition Supported by Docking Studies” (International Journal of Molecular Sciences, 2023).
Like-named read-outs stand apart in the source and are kept apart here.

Legend:
[1] = test system: HePG-2; experiment: MTT cytotoxicity assay, HePG-2; format: cell-based; settings: Homo sapiens, HepG2
Method: (§1) The cytotoxic activity was assessed using the 3-(4,5-dimethylthiazol-2-yl)-2,5-diphenyl tetrazolium bromide (MTT) colorimetric assay, as reported previously. Doxorubicin was used as a reference standard, and DMSO was used as a negative control. Briefly, the designated cell lines were cultured at a concentration of 5 × 10^4 cell/well in 96-well plates. The cells were incubated for 24 h under optimum conditions. Following this, the designated molecules were introduced (in serial dilutions from 0 to 50 μg/mL), and the cells were incubated for an additional 24 h. Following this, the media were withdrawn, and 100 μL of fresh medium was added. Then, 10 µL of the 12 mM MTT stock solution was administered to each well. The plates were then incubated for 4 h. […] An 85-μL aliquot of the media was removed from the wells, and 50 µL of DMSO was added to each well and mixed thoroughly with the pipette and incubated at 37 °C for 10 min. Then, the optical density was measured at 590 nm with the microplate reader (Sunrise, TECAN, Inc., Morrisville, NC, USA).

[2] = test system: HCT-116; experiment: MTT cytotoxicity assay, HCT-116; format: cell-based; settings: Homo sapiens, HCT-116, read-out: IC50 HCT-116; MTT, colon cancer cells
Method: (§2) The cytotoxic activity was assessed using the 3-(4,5-dimethylthiazol-2-yl)-2,5-diphenyl tetrazolium bromide (MTT) colorimetric assay, as reported previously [62, 63]. […] Briefly, the designated cell lines were cultured at a concentration of 5 × 10^4 cell/well in 96-well plates. The cells were incubated for 24 h under optimum conditions. Following this, the designated molecules were introduced (in serial dilutions from 0 to 50 μg/mL), and the cells were incubated for an additional 24 h. Following this, the media were withdrawn, and 100 μL of fresh medium was added. Then, 10 µL of the 12 mM MTT stock solution was administered to each well. The plates were then incubated for 4 h. Then, the cells were exposed to different compounds at the desired concentrations (0.01, 0.1, 1, 10, and 100 µM) or to 1% dimethyl sulfoxide (DMSO) for 48 and 72 h. […] Then, the optical density was measured at 590 nm with the microplate reader (Sunrise, TECAN, Inc., Morrisville, NC, USA).

[3] = test system: MCF-7; experiment: MTT cytotoxicity assay, MCF-7; format: cell-based; settings: Homo sapiens, MCF7; MTT, breast cancer cells; read-out: IC50 MCF-7
Method: as §2

[4] = test system: WI-38; experiment: MTT assay on normal cell line WI-38; format: cell-based; settings: Homo sapiens, WI-38, MTT, normal human diploid fibroblasts
Method: According to our design, the tested compounds are classified into four categories based on the length and the chemotype of the spacer (Figure 3). In the first category, we used monosubstituted hydrazone linker. […] The second category is represented by […] hydrazone linker.
as §1

[5] = target: T1, Topo-II (Homo sapiens, UniProt Q02880); experiment: In vitro Topo II inhibitory assay; format: biochemical
T1 construct: purchased
Method: Curve fitting was performed using GraphPad Prism.
(1 picture or pasted object on this page, not shown here)

[6] = MTT, liver cancer cells, read-out: IC50 HePG-2

T1 sequence (Q02880 2-1626): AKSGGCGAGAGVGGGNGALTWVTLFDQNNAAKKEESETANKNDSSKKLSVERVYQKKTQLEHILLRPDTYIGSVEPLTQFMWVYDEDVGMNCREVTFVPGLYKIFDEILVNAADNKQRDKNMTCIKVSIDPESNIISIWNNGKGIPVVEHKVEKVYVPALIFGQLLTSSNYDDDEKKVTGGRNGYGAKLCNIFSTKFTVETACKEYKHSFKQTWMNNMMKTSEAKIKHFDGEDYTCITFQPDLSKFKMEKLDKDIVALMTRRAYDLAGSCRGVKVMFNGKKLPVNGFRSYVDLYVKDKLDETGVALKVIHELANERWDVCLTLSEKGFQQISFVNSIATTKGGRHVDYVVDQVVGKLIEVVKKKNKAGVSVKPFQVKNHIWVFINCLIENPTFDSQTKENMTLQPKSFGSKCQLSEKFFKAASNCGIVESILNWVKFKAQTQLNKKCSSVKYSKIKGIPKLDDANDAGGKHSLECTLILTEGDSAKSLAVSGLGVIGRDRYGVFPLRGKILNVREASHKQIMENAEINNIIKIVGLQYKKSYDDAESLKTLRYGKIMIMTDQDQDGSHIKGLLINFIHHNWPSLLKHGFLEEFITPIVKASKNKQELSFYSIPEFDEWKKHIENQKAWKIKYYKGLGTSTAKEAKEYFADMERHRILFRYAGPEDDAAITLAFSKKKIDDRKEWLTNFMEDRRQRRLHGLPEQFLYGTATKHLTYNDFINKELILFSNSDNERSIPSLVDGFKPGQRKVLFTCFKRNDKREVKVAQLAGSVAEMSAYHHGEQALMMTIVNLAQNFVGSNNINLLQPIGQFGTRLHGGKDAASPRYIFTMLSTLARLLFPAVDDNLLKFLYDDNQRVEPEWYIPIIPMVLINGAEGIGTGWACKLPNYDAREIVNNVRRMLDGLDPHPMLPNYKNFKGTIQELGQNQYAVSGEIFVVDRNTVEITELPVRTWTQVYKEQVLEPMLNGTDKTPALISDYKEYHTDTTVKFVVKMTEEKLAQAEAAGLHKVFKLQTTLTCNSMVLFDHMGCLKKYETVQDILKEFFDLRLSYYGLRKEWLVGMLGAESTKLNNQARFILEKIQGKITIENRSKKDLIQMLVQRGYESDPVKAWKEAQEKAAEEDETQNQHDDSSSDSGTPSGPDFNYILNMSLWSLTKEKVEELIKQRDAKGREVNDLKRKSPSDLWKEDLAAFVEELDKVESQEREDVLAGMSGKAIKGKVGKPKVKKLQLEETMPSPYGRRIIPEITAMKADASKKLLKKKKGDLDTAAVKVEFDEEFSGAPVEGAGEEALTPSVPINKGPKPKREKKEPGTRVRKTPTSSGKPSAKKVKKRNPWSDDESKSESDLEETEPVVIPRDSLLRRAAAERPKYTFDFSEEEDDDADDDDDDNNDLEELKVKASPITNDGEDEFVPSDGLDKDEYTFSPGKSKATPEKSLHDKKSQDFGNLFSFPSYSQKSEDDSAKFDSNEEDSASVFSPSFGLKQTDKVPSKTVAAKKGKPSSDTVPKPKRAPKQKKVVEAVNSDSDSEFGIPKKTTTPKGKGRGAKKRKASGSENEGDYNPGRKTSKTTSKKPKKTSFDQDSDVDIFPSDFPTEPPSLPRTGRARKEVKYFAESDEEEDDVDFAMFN

| Structure (SMILES) | melting point | IC50 [1, 6] | IC50 [2] | IC50 [3] | further results |
| --- | --- | --- | --- | --- | --- |
| Cc1nc(NN=Cc2ccccc2)c2cnn(-c3ccccc3)c2n1 [Compound 5a, 4-(2-Benzylidenehydrazinyl)-6-methyl-1-phenyl-1H-pyrazolo[3,4-d]pyrimidine] | 160 to 162 °C | 15.1 ± 1.2 µM | 11.7 ± 0.9 µM | 21.1 ± 1.5 µM | – |
| Cc1nc(NN=Cc2ccc(Cl)cc2)c2cnn(-c3ccccc3)c2n1 [Compound 5c, 4-(2-(4-Chlorobenzylidene)hydrazinyl)-6-methyl-1-phenyl-1H-pyrazolo[3,4-d]pyrimidine] | 233 to 235 °C | 83.7 ± 4.4 µM | 39.5 ± 2.6 µM | 66.6 ± 3.8 µM | – |
| COc1ccc(C=NNc2nc(C)nc3c2cnn3-c2ccccc2)cc1 [Compound 5d] | 227 to 229 °C | 18.3 ± 1.5 µM | 9.87 ± 0.7 µM | 19.4 ± 1.3 µM | – |
| COc1ccccc1C=NNc1nc(C)nc2c1cnn2-c1ccccc1 [Compound 5e, 4-(2-(2-Methoxybenzylidene)hydrazineyl)-6-methyl-1-phenyl-1H-pyrazolo[3,4-d]pyrimidine] | 220 to 222 °C | 13.8 ± 1 µM | 8.15 ± 0.5 µM | 16.1 ± 1.1 µM | – |
| Cc1nc(NN=Cc2ccc([N+](=O)[O-])cc2)c2cnn(-c3ccccc3)c2n1 [Compound 5f, 6-Methyl-4-(2-(4-nitrobenzylidene)hydrazineyl)-1-phenyl-1H-pyrazolo[3,4-d]pyrimidine] | 250 to 252 °C | > 100 µM | 89.7 ± 4.8 µM | > 100 µM | – |
| Cc1nc(NN=Cc2c(Cl)cccc2Cl)c2cnn(-c3ccccc3)c2n1 [Compound 5g, 4-(2-(2,6-Dichlorobenzylidene)hydrazineyl)-6-methyl-1-phenyl-1H-pyrazolo[3,4-d]pyrimidine] | 255 to 257 °C | > 100 µM | > 100 µM | > 100 µM | – |
| Cc1nc(NN=CC=Cc2ccccc2)c2cnn(-c3ccccc3)c2n1 [Compound 5h, 6-Methyl-1-phenyl-4-(2-(-3-phenylallylidene)hydrazineyl)-1H-pyrazolo[3,4-d]pyrimidine] | 241 to 243 °C | > 100 µM | 76.8 ± 4.1 µM | > 100 µM | – |
| CC(=NNc1nc(C)nc2c1cnn2-c1ccccc1)c1ccc(N)cc1 [Compound 5j, 4-(1-(2-(6-Methyl-1-phenyl-1H-pyrazolo[3,4-d]pyrimidin-4-yl)hydrazineylidene)ethyl)aniline] | 221 to 223 °C | 44.3 ± 2.9 µM | 21.5 ± 1.5 µM | 36 ± 2.4 µM | – |
| COc1ccc(C(C)=NNc2nc(C)nc3c2cnn3-c2ccccc2)cc1 [Compound 5k, 4-(2-(1-(4-Methoxyphenyl)ethylidene)hydrazinyl)-6-methyl-1-phenyl-1H-pyrazolo[3,4-d]pyrimidine] | 235 to 237 °C | 91.6 ± 5.1 µM | 78 ± 4.2 µM | 88.3 ± 4.7 µM | – |
| CC(=NNc1nc(C)nc2c1cnn2-c1ccccc1)c1ccc(Cl)cc1Br [Compound 5l, 4-(2-(1-(2-Bromo-4-chlorophenyl)ethylidene)hydrazineyl)-6-methyl-1-phenyl-1H-pyrazolo[3,4-d] pyrimidine] | 257 to 259 °C | 17.1 ± 1.3 µM | 14.6 ± 1.1 µM | 29.2 ± 1.8 µM | – |
| Cc1nc(NN2C(=O)CCC2=O)c2cnn(-c3ccccc3)c2n1 [Compound 7, 1-((6-Methyl-1-phenyl-1H-pyrazolo[3,4-d]pyrimidin-4-yl)amino)pyrrolidine-2,5-dione] | 280 to 282 °C | 87.2 ± 4.5 µM | 73.5 ± 3.8 µM | 81 ± 4.6 µM | – |
| Cc1nc(NN2C(=O)C=CC2=O)c2cnn(-c3ccccc3)c2n1 [Compound 8, 1-((6-Methyl-1-phenyl-1H-pyrazolo[3,4-d]pyrimidin-4-yl)amino)-1H-pyrrole-2,5-dione] | – | 78.5 ± 4.3 µM | 66.3 ± 3.5 µM | 79.5 ± 4.4 µM | – |
| CCCNC(=S)NNc1nc(C)nc2c1cnn2-c1ccccc1 [Compound 9b, 2-(6-Methyl-1-phenyl-1H-pyrazolo[3,4-d]pyrimidin-4-yl)-N-propylhydrazinecarbothioamide] | – | 23.9 ± 1.8 µM | 17.6 ± 1.3 µM | 34.2 ± 2 µM | – |
| COc1cccc2c1C(=O)c1c(O)c3c(c(O)c1C2=O)C[C@@](O)(C(=O)CO)C[C@@H]3O[C@H]1C[C@H](N)[C@H](O)[C@H](C)O1 [DOX, Doxorubicin, reference compound] | – | 4.5 ± 0.2 µM | – | – | IC50 [4]: 10.6 ± 0.47 µM; IC50 ([1]; 24 h incubation, read-out: IC50 HePG-2 24 h): 4.5 ± 0.2 µM; IC50 ([1]; 48 h incubation, read-out: IC50 HePG-2 48 h): 3.24 ± 0.2 µM; IC50 ([1]; 72 h incubation, read-out: IC50 HePG-2 72 h): 1.07 ± 0.1 µM |
| COc1cc([C@@H]2c3cc4c(cc3[C@@H](O[C@@H]3O[C@@H]5CO[C@@H](C)O[C@H]5[C@H](O)[C@H]3O)[C@H]3COC(=O)[C@H]23)OCO4)cc(OC)c1O [Etoposide, reference compound] | – | – | – | – | TOPO IiB %inh at conc 12.5 ([5]; conc 12.5, unit not given): 7.5%; TOPO IiB %inh at conc 25 ([5]; conc 25, unit not given): 20%; TOPO IiB %inh at conc 50 ([5]; conc 50, unit not given): 39%; TOPO IiB %inh at conc 100 ([5]; conc 100, unit not given): 69% |

Second part, led by results:

| melting point | Structure (SMILES) | IC50 [1, 6] | IC50 [2] | IC50 [3] | further results |
| --- | --- | --- | --- | --- | --- |
| 250 to 252 °C | Cc1nc2c(cnn2-c2ccccc2)c2nncn12 [Compound 6a, 5-Methyl-7-phenyl-7H-pyrazolo[4,3-e][1,2,4]triazolo[4,3-c]pyrimidine] | 37.5 ± 2.7 µM | 34.6 ± 2.2 µM | 49.6 ± 3.1 µM | – |
| 267 to 269 °C | Cc1nc2c(cnn2-c2ccccc2)c2nnc(C(F)(F)F)n12 [Compound 6b, 5-Methyl-7-phenyl-3-(trifluoromethyl)-7H-pyrazolo[4,3-e][1,2,4]triazolo[4,3-c]pyrimidine] | 25.2 ± 2 µM | 26.1 ± 1.8 µM | 39.1 ± 2.5 µM | – |
| 250 to 252 °C | Cc1nc2c(cnn2-c2ccccc2)c2nnc(C(Cl)(Cl)Cl)n12 [Compound 6c, 5-Methyl-7-phenyl-3-(trichloromethyl)-7H-pyrazolo[4,3-e][1,2,4]triazolo[4,3-c]pyrimidine] | 56.2 ± 3.5 µM | 37.2 ± 2.4 µM | 54.2 ± 3.4 µM | – |
| 240 to 242 °C | CC(=O)CC(C)=Nc1nc(C)nc2c1cnn2-c1ccccc1 [Compound 6d, 4-((6-Methyl-1-phenyl-1H-pyrazolo[3,4-d]pyrimidin-4-yl)imino)pentan-2-one] | 89.2 ± 4.7 µM | 93.4 ± 5.2 µM | 84.6 ± 4.6 µM | – |
| 278 to 280 °C | CCNC(=S)NNc1nc(C)nc2c1cnn2-c1ccccc1 [Compound 9a, N-Ethyl-2-(6-methyl-1-phenyl-1H-pyrazolo[3,4-d]pyrimidin-4-yl)hydrazinecarbothioamide] | 5.97 ± 0.3 µM | 2.96 ± 0.1 µM | 7.61 ± 0.4 µM | – |
| 270 to 272 °C | CCCCNC(=S)NNc1nc(C)nc2c1cnn2-c1ccccc1 [Compound 9c, N-Butyl-2-(6-methyl-1-phenyl-1H-pyrazolo[3,4-d]pyrimidin-4-yl)hydrazinecarbothioamide] | 20.3 ± 1.6 µM | 16.6 ± 1.2 µM | 31.4 ± 1.9 µM | – |
| 268 to 270 °C | C=CNC(=S)NNc1nc(C)nc2c1cnn2-c1ccccc1 [Compound 9d, 2-(6-Methyl-1-phenyl-1H-pyrazolo[3,4-d]pyrimidin-4-yl)-N-vinylhydrazine-1-carbothioamide] | 32.6 ± 2.4 µM | 19.7 ± 1.4 µM | 35.2 ± 2.2 µM | – |
